The target in one assay is COX-1 (Homo sapiens, UniProt P23219). The assay is described as follows: COX-1 enzyme activity in human whole blood (A23187 stimulated, thromboxane B2 EIA). It counts as cell-based. The settings on record: test compound at 100 μM. Set-up: Human blood (≈50 mL) from male or female donors who had not received any aspirin or NSAIDs for 14 days; endogenous in cells; host or cells: human whole blood from donors. As for the experimental part: (§1) The assay for COX-1 and COX-2 enzyme activity, in the human whole blood was performed as described in Brideau et al., Inflamm Res., 45: 68-74 (1996)). Human blood (≈50 mL) from male or female donors who had not received any aspirin or NSAIDs for 14 days was collected at two local area blood donor centers and placed in polypropylene syringes containing sodium heparin (20 units per mL blood, final concentration). The blood was transported to the laboratory on ice packs and used within 1.5 hours of collection. Upon receipt in the laboratory, the blood was allowed to come to room temperature for 15 minutes prior to distribution in 1 mL aliquots per well of 24 well tissue culture plates. The plates were then placed on a gently rotating platform shaker in a 5% CO2 incubator at 37° C. for 15 minutes. Test compounds were dissolved in DMSO, at 1000 fold the final desired concentration, and further diluted, as indicated, in DMSO. One μL of each dilution of the test compound was added per well, in duplicate wells; wells not receiving test compound (e.g., basal, background or control wells) received 1 μL DMSO.
(§2) To induce COX-2, lipopolysaccharide (LPS) from E. coli (LPS, serotype 026:B6 or serotype 0127:B8, Sigma Chemical Co., St. Louis, Mo., Catalogue No. L3755 or L3129, respectively) was added at 10 μg/mL (2 μL of 5 mg/mL LPS in DMSO) to appropriate wells 15 minutes after the addition of the test compound. (Basal or background wells not incubated with LPS received 2 μL of DMSO.) For the stimulation of COX-1, the calcium ionophore, A23187 (free acid from Sigma Chemical Co., St. Louis, Mo., Catalogue No. C7522) was added at 25 μM (1 μL of 25 mM stock in DMSO) to separate wells 4.5 hours after the addition of the test compound. (Again, basal, background or control wells not stimulated with A23187 received 1 μL of DMSO.) At 5 hours after the addition of the test compound, all incubations were terminated by placement on ice and the addition of 2 mM EGTA (100 μL of 20 mM EGTA, tetrasodium, in PBS (phosphate buffered saline) without Ca^++ and Mg^++, pH 7.2)). The resulting solutions, were transferred by polyethylene transfer pipettes to 15 mL polypropylene centrifuge tubes and centrifuged at 1200 g for 10 minutes at 4° C. One hundred μL of plasma was removed from each blood sample and added to 1 mL of methanol in new 15 mL polypropylene centrifuge tubes, vortexed, and stored overnight at −20° C. The next day, the samples were centrifuged at 2000 g for 10 minutes at 4° C. and the supernatants transferred to glass tubes and evaporated to dryness. The samples were assayed for thromboxane B2 using EIA kits supplied by Cayman Chemical Co. (Ann Arbor, Mich., Catalogue No. 519031) in duplicate wells after reconstitution with EIA Buffer and appropriate dilution (2000 fold for COX-1 and 500 fold for Cox-2 samples).

For the next assay, the target named is T1, COX-2 (Homo sapiens, UniProt P35354).
T1 sequence (P35354 18-604): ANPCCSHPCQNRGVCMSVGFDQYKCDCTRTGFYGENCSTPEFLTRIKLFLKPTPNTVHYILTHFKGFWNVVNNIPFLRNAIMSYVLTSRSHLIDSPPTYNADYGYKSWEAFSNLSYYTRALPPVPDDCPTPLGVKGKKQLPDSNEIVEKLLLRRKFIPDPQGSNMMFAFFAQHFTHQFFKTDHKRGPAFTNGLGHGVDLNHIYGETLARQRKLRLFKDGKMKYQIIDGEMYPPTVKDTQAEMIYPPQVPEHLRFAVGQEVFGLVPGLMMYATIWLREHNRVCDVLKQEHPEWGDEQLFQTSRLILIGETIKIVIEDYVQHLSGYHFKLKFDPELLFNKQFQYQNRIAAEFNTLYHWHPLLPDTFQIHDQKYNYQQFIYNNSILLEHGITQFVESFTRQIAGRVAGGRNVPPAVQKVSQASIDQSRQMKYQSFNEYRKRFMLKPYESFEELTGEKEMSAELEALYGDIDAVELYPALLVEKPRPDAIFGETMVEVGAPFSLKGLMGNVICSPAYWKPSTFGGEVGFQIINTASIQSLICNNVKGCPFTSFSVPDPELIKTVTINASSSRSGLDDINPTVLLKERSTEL
The assay is described as follows: COX-2 enzyme activity in human whole blood (LPS induced, thromboxane B2 EIA). The assay is classed as cell-based. Also on record: Human blood (≈50 mL) from male or female donors who had not received any aspirin or NSAIDs for 14 days; endogenous in cells; host or cells: human whole blood from donors, LPS-induced. To be noted: test compound at 10 μM. As for the experimental part: as §1, with “Human” for “The assay for COX-1 and COX-2 enzyme activity, in the human whole blood was performed as described in Brideau et al., Inflamm Res., 45: 68-74 (1996)). Human”
as §2, with “(Basal or background wells not incubated with LPS received 2 μL of DMSO.) For the stimulation of COX-1, the calcium ionophore, A23187 (free acid from Sigma Chemical Co., St. Louis, Mo., Catalogue No. C7522) was added at 25 μM (1 μL of 25 mM stock in DMSO) to separate wells 4.5 hours after the addition of the test compound.” left out, “dryness.” for “dryness. The samples were assayed for thromboxane B2 using EIA kits supplied by Cayman Chemical Co. (Ann Arbor, Mich., Catalogue No. 519031) in duplicate wells after reconstitution with EIA Buffer and appropriate dilution (2000 fold for COX-1 and 500 fold for Cox-2 samples).”

The record followed here is patent US6825185B2, “Substituted aryl compounds as novel cyclooxygenase-2 selective inhibitors, compositions and methods of use” (NitroMed, Inc., priority 2000, dated 2004).

Sequence of COX-1 (P23219 24-599): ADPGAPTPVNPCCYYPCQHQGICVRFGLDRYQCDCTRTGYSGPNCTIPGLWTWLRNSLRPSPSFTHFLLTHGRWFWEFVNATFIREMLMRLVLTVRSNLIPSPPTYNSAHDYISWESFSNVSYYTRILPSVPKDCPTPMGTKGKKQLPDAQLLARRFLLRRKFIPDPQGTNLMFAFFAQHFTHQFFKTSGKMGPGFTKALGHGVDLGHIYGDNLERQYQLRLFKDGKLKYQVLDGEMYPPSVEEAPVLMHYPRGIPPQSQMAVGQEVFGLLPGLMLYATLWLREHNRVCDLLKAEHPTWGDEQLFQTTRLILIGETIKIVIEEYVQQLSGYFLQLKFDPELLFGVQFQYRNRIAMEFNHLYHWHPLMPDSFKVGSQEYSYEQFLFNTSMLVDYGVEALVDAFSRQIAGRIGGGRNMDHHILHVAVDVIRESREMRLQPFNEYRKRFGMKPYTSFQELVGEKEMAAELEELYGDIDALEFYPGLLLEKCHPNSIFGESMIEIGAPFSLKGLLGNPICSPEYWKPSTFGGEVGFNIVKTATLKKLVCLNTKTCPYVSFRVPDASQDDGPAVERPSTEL

Turning to `CS(=O)(=O)c1ccc(-c2cc3c(cc2C(=O)c2cc(F)cc(F)c2)OCO3)cc1` [Example 16, 4-(1-(3′,5′-Difluorophenyl)-1-oxomethyl)-1,2-methylenedioxy-5-(4-methylsulfonylphenyl)benzene], at COX-1, the “COX-1 Inhibition (% at 100 μM)” value worked out at 50%. Further, the “COX-2 Inhibition (% at 10 μM)” value at COX-2 turned out to be 100%.
For `COc1cc(Cc2cc(F)cc(F)c2)c(-c2ccc(S(C)(=O)=O)cc2)cc1OC` [Example 17d, 5-(1-(3′,5′-Difluorophenyl)methyl)-1,2-dimethoxy-4-(4-methylsulfonylphenyl)benzene], in that order: 25% and 20%.
For `CS(=O)(=O)c1ccc(-c2cc(O)c(O)cc2Cc2cc(F)cc(F)c2)cc1` [Example 17e, 5-(1-(3′,5′-Difluorophenyl)methyl)-1,2-dihydroxy-4-(4-methylsulfonylphenyl)benzene], in that order: 35% and 25%.
Take `CCOC(=O)C1(C(=O)OCC)Oc2cc(Cc3cc(F)cc(F)c3)c(-c3ccc(S(C)(=O)=O)cc3)cc2O1` [Example 17f, 1,2-(Bis(ethoxycarbonyl))methylenedioxy-5-(1-(3′,5′-difluorophenyl)methyl)--4-(4-methylsulfonylphenyl)benzene]: the “COX-1 Inhibition (% at 100 μM)” value at COX-1 was determined as 10%. For the same compound, the “COX-2 Inhibition (% at 10 μM)” value at COX-2 is 25%.
Turning to `CS(=O)(=O)c1ccc(-c2cc(O)c(O)cc2C(=O)c2cc(F)cc(F)c2)cc1` [Example 17h, 4-(1-(3′,5′-Difluorophenyl)-1-oxomethyl)-1,2-hydroxy-5-(4-methylsulfonylphenyl)benzene], the “COX-1 Inhibition (% at 100 μM)” value at COX-1 is 65%. Further, the “COX-2 Inhibition (% at 10 μM)” value at COX-2 stood at 55%.
In the case of `CS(=O)(=O)c1ccc(-c2cc3c(cc2Cc2cc(F)cc(F)c2)OC(C(=O)NCCO)CO3)cc1` (centres unmarked) [Example 18b, (7-((3,5-Difluorophenyl)methyl)-6-(4-(methylsulfonyl)phenyl)(2H, 3H-benzo(e)1,4-dioxin-2-yl))-N-(2-hydroxyethyl)carboxamido], the “COX-1 Inhibition (% at 100 μM)” value at COX-1 was determined as 50%. Moreover, the “COX-2 Inhibition (% at 10 μM)” value on COX-2 was found to be 25%.
For `CS(=O)(=O)c1ccc(-c2cc3c(cc2Cc2cc(F)cc(F)c2)OCC(C(=O)NCCO)O3)cc1` (centres unmarked) [Example 18c, (6-((3,5-Difluorophenyl)methyl)-7-(4-(methylsulfonyl)phenyl)(2H, 3H-benzo(e)1,4-dioxin-2-yl))-N-(2-hydroxyethyl)carboxamide], the inhibition at 100 µM at COX-1 turned out to be 90%. At 10 µM the inhibition on COX-2 was 40%.
With `CS(=O)(=O)c1ccc(-c2cc3c(cc2Cc2cc(F)cc(F)c2)OC(C(=O)NCCO[N+](=O)[O-])CO3)cc1` (centres unmarked) [Example 18d, (7-((3,5-Difluorophenyl)methyl)-6-(4-(methylsulfonyl)phenyl)(2H, 3H-benzo(e)1,4-dioxin-2-yl))-N-(2-(nitrooxy)ethyl)carboxamido], the “COX-1 Inhibition (% at 100 μM)” value at COX-1 came out at 60%. For the same compound, the “COX-2 Inhibition (% at 10 μM)” value at COX-2 was 40%.
For `O=[N+]([O-])OCc1ccc(-c2cc3c(cc2Cc2cc(F)cc(F)c2)OCO3)cc1` [Example 23d, ((4-(6-((3,5-Difluorophenyl)methyl)(2H-benzo(3,4-d)1,3-dioxolan-5-yl))phenyl)methyl)nitrooxy], in that order: 65% and 30%.
Consider “Ethyl 7-((3,5-difluorophenyl)methyl)-6-(4-(methylsulfonyl)phenyl)-2H, 3H-benzo(e)1,4-dioxin-2-carboxylate and ethyl 6-((3, 5-difluorophenyl)methyl)-7-(4-(methylsulfonyl)phenyl)-2H, 3H-benzo(e)1,4-dioxin-2-carboxylate [Example 18a]”, for which the “COX-1 Inhibition (% at 100 μM)” value on COX-1 is 90%. Further, on COX-2, the “COX-2 Inhibition (% at 10 μM)” value turned out to be 65%.
